According to the supplement of paper PMC6045584:
± gives the standard deviation of the averaged measurements.

Legend:
[1] = compound: Cc1nc(Nc2n[nH]c3c2CN(C(=O)N[C@H](CN(C)C)c2ccccc2)C3(C)C)c2sccc2n1; test: surviving fraction relative to DMSO-only wells; higher = less growth inhibition; conditions: exposure time: 5 days
Method in brief: (§1)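 Viability was scored with CellTiter-Glo luminescence and normalised to the median of DMSO-only wells as surviving fraction. Beforehand, log-phase tumour cell lines were seeded at 250–500 cells per well in 384-well plates, allowed 24 hours, and exposed continuously for five days to inhibitors at 0.5, 1, 5, 10, 50, 100, 500 and 1000 nM. Only lines whose three screens gave replicate Pearson r >0.7 and median Z' >0.3 were kept.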

[2] = compound: COc1cc(CCc2cc(NC(=O)c3ccc(N4CC(C)NC(C)C4)cc3)n[nH]2)cc(OC)c1 [AZD4547]; test: as above; conditions: exposure time: 5 days
Method in brief: as §1

Test System | surviving fraction ([1]; 0.5 nM) | surviving fraction ([1]; 1 nM) | surviving fraction ([1]; 5 nM) | surviving fraction ([1]; 10 nM) | surviving fraction ([1]; 50 nM) | surviving fraction ([1]; 100 nM) | surviving fraction ([1]; 500 nM) | surviving fraction ([1]; 1000 nM) | surviving fraction ([2]; 0.5 nM) | surviving fraction ([2]; 1 nM) | surviving fraction ([2]; 5 nM) | surviving fraction ([2]; 10 nM) | surviving fraction ([2]; 50 nM) | surviving fraction ([2]; 100 nM) | surviving fraction ([2]; 500 nM) | surviving fraction ([2]; 1000 nM)
OSHN BONE | 1.06 ± 0.037 | 1.01 ± 0.019 | 0.4963 ± 0.004 | 0.361 ± 0.026 | 0.31 ± 0.017 | 0.347 ± 0.031 | 0.366 ± 0.015 | 0.279 ± 0.018 | 1.06 ± 0.02 | 1.09 ± 0.044 | 1.09 ± 0.044 | 1.11 ± 0.048 | 1.07 ± 0.023 | 1.1 ± 0.044 | 1.07 ± 0.042 | 1.06 ± 0.011
PCI30 HEADNECK | 0.882 ± 0.021 | 0.823 ± 0.028 | 0.579 ± 0.015 | 0.599 ± 0.038 | 0.538 ± 0.022 | 0.514 ± 0.024 | 0.344 ± 0.014 | 0.0833 ± 0.019 | 0.998 ± 0.026 | 0.966 ± 0.082 | 1.09 ± 0.12 | 1.09 ± 0.094 | 1.16 ± 0.061 | 1.17 ± 0.11 | 1.1 ± 0.012 | 0.999 ± 0.07
RDES SOFT TISSUE | 0.764 ± 0.075 | 0.577 ± 0.1 | 1.16 ± 0.32 | 1.02 ± 0.14 | 0.756 ± 0.037 | 0.763 ± 0.1 | 0.525 ± 0.044 | 0.503 ± 0.094 | 1.28 ± 0.16 | 1.29 ± 0.047 | 1.12 ± 0.084 | 1.1 ± 0.12 | 0.835 ± 0.13 | 0.813 ± 0.14 | 0.961 ± 0.16 | 1.04 ± 0.12
S68 BREAST | 1.04 ± 0.21 | 0.77 ± 0.013 | 0.481 ± 0.066 | 0.321 ± 0.04 | 0.288 ± 0.081 | 0.318 ± 0.0098 | 0.25 ± 0.014 | 0.234 ± 0.017 | 0.981 ± 0.08 | 1.04 ± 0.052 | 1.02 ± 0.25 | 1.1 ± 0.18 | 0.957 ± 0.23 | 1.53 ± 0.1 | 1.05 ± 0.035 | 0.684 ± 0.062
SAOS2 BONE | 0.797 ± 0.0017 | 0.645 ± 0.062 | 0.509 ± 0.016 | 0.4777 ± 0.004 | 0.42 ± 0.019 | 0.376 ± 0.025 | 0.12 ± 0.018 | 0.034 ± 0.0017 | 1.046 ± 0.0017 | 1.077 ± 0.0081 | 1.14 ± 0.031 | 1.17 ± 0.085 | 1.16 ± 0.054 | 1.14 ± 0.051 | 0.92467 ± 0.00058 | 0.649 ± 0.023
SCC36 HEADNECK | 0.862 ± 0.084 | 0.681 ± 0.052 | 0.258 ± 0.011 | 0.188 ± 0.019 | 0.152 ± 0.011 | 0.164 ± 0.029 | 0.101 ± 0.0062 | 0.106 ± 0.0084 | 0.993 ± 0.053 | 1.07 ± 0.081 | 1.18 ± 0.17 | 1.09 ± 0.21 | 0.988 ± 0.07 | 1.01 ± 0.039 | 0.856 ± 0.029 | 0.687 ± 0.053
SCC47 HEADNECK | 1.06 ± 0.018 | 1.08 ± 0.033 | 0.815 ± 0.029 | 0.664 ± 0.074 | 0.47 ± 0.018 | 0.432 ± 0.044 | 0.292 ± 0.03 | 0.135 ± 0.023 | 0.967 ± 0.14 | 1.02 ± 0.066 | 1.02 ± 0.1 | 1.13 ± 0.069 | 1.08 ± 0.037 | 1.09 ± 0.091 | 1.03 ± 0.078 | 0.961 ± 0.074
SCC90 HEADNECK | 0.981 ± 0.092 | 0.893 ± 0.19 | 0.516 ± 0.016 | 0.523 ± 0.027 | 0.488 ± 0.04 | 0.467 ± 0.028 | 0.185 ± 0.016 | 0.177 ± 0.034 | 1.07 ± 0.095 | 1.06 ± 0.11 | 1.04 ± 0.17 | 1.09 ± 0.14 | 1.08 ± 0.038 | 1.15 ± 0.055 | 1.04 ± 0.043 | 1.1 ± 0.11
SG27 HEADNECK | 0.936 ± 0.024 | 0.931 ± 0.029 | 0.64 ± 0.069 | 0.612 ± 0.066 | 0.408 ± 0.069 | 0.373 ± 0.053 | 0.199 ± 0.046 | 0.115 ± 0.01 | 0.937 ± 0.05 | 0.959 ± 0.078 | 0.864 ± 0.027 | 0.82 ± 0.024 | 0.68 ± 0.069 | 0.791 ± 0.032 | 0.849 ± 0.027 | 0.943 ± 0.098
SG28 HEADNECK | 0.97 ± 0.064 | 1 ± 0.056 | 0.818 ± 0.009 | 0.716 ± 0.039 | 0.667 ± 0.051 | 0.523 ± 0.063 | 0.186 ± 0.0036 | 0.049 ± 0.0053 | 0.977 ± 0.13 | 1.14 ± 0.023 | 1.07 ± 0.093 | 0.982 ± 0.026 | 0.959 ± 0.048 | 1.04 ± 0.087 | 1.01 ± 0.077 | 0.706 ± 0.057
SG31 HEADNECK | 0.947 ± 0.073 | 1.01 ± 0.088 | 0.671 ± 0.076 | 0.909 ± 0.17 | 0.456 ± 0.0092 | 0.609 ± 0.067 | 0.241 ± 0.024 | 0.344 ± 0.033 | 1.21 ± 0.24 | 0.886 ± 0.12 | 0.994 ± 0.15 | 1.01 ± 0.17 | 0.836 ± 0.07 | 0.856 ± 0.12 | 0.883 ± 0.049 | 0.958 ± 0.051
SG32 HEADNECK | 1.04 ± 0.29 | 0.756 ± 0.027 | 0.363 ± 0.013 | 0.247 ± 0.017 | 0.206 ± 0.014 | 0.148 ± 0.021 | 0.0707 ± 0.012 | 0.041 ± 0.011 | 0.915 ± 0.25 | 1 ± 0.15 | 0.925 ± 0.2 | 0.938 ± 0.083 | 1.04 ± 0.031 | 0.946 ± 0.032 | 0.968 ± 0.3 | 0.659 ± 0.056
SG43 HEADNECK | 1.23 ± 0.11 | 1.11 ± 0.22 | 0.921 ± 0.13 | 0.784 ± 0.34 | 1.14 ± 0.2 | 0.959 ± 0.16 | 0.971 ± 0.055 | 1.35 ± 0.2 | 1.02 ± 0.37 | 0.896 ± 0.17 | 0.714 ± 0.13 | 0.8 ± 0.13 | 0.759 ± 0.099 | 0.696 ± 0.14 | 0.94 ± 0.11 | 0.731 ± 0.074
SIHA CERVIX | 0.827 ± 0.039 | 0.689 ± 0.052 | 0.555 ± 0.023 | 0.487 ± 0.026 | 0.419 ± 0.0098 | 0.391 ± 0.0081 | 0.262 ± 0.031 | 0.146 ± 0.017 | 1.06 ± 0.037 | 1.08 ± 0.05 | 1.11 ± 0.066 | 0.985 ± 0.025 | 0.839 ± 0.079 | 0.895 ± 0.054 | 0.786 ± 0.06 | 0.785 ± 0.052
SJSA1 BONE | 0.972 ± 0.02 | 0.901 ± 0.011 | 0.747 ± 0.018 | 0.696 ± 0.057 | 0.448 ± 0.015 | 0.393 ± 0.025 | 0.289 ± 0.007 | 0.243 ± 0.0072 | 1.01 ± 0.028 | 1.08 ± 0.08 | 1.08 ± 0.076 | 1.09 ± 0.046 | 1.14 ± 0.036 | 1.06 ± 0.05 | 1.01 ± 0.041 | 0.975 ± 0.075
SKBR3 BREAST | 0.895 ± 0.11 | 0.834 ± 0.079 | 0.49 ± 0.027 | 0.498 ± 0.026 | 0.454 ± 0.063 | 0.419 ± 0.045 | 0.344 ± 0.021 | 0.1 ± 0.011 | 1.07 ± 0.14 | 1.2 ± 0.05 | 1.04 ± 0.079 | 1.09 ± 0.13 | 1.15 ± 0.13 | 1.26 ± 0.13 | 1.16 ± 0.18 | 1.11 ± 0.13
SNU475 LIVER | 0.974 ± 0.027 | 0.918 ± 0.067 | 0.724 ± 0.06 | 0.633 ± 0.032 | 0.509 ± 0.0096 | 0.467 ± 0.024 | 0.393 ± 0.015 | 0.244 ± 0.015 | 0.956 ± 0.021 | 1.02 ± 0.059 | 0.95 ± 0.024 | 0.972 ± 0.056 | 0.925 ± 0.047 | 0.948 ± 0.019 | 0.939 ± 0.053 | 0.894 ± 0.012
SUM44 BREAST | 1.08 ± 0.03 | 1.05 ± 0.065 | 1 ± 0.039 | 0.972 ± 0.041 | 0.983 ± 0.059 | 0.929 ± 0.038 | 0.735 ± 0.023 | 0.541 ± 0.023 | 0.9847 ± 0.0095 | 1.02 ± 0.029 | 0.985 ± 0.042 | 1.08 ± 0.064 | 1.11 ± 0.019 | 1.06 ± 0.011 | 1.09 ± 0.066 | 1.07 ± 0.05
SUM149 BREAST | 0.863 ± 0.011 | 1.01 ± 0.02 | 0.178 ± 0.014 | 0.365 ± 0.037 | 0.124 ± 0.0069 | 0.145 ± 0.011 | 0.0783 ± 0.0083 | 0.117 ± 0.013 | 0.989 ± 0.054 | 1.05 ± 0.11 | 1.08 ± 0.017 | 1 ± 0.034 | 1.04 ± 0.072 | 0.989 ± 0.05 | 1.02 ± 0.073 | 0.916 ± 0.047
SUM149.B1*.S BREAST | 1.05 ± 0.021 | 1.04 ± 0.013 | 0.473 ± 0.02 | 0.817 ± 0.017 | 0.279 ± 0.032 | 0.748 ± 0.032 | 0.24 ± 0.0095 | 0.691 ± 0.046 | 1.05 ± 0.013 | 1.083 ± 0.01 | 1.09 ± 0.04 | 1.09 ± 0.035 | 1.05 ± 0.083 | 1.07 ± 0.018 | 1.07 ± 0.054 | 1.07 ± 0.077
SUM159 BREAST | 1.13 ± 0.2 | 1.15 ± 0.2 | 1.15 ± 0.21 | 1.1 ± 0.18 | 0.554 ± 0.027 | 0.407 ± 0.026 | 0.369 ± 0.028 | 0.292 ± 0.0093 | 1.16 ± 0.24 | 1.19 ± 0.22 | 1.15 ± 0.2 | 1.2 ± 0.23 | 1.15 ± 0.2 | 1.14 ± 0.2 | 1.22 ± 0.27 | 1.1 ± 0.15
